This data set can be described thus: solvent given as SMILES.

Molecules are shown by their SMILES.

Regarding `CCN1\C(=C/C=C/C=C/C2=[N+](CC)c3ccc4cc(Br)ccc4c3C2(C)C)C(C)(C)c2c1ccc1cc(Br)ccc21`, the emission maximum by setting is: (in C1CCOC1) 709 nm; (in CC#N) 699 nm; (in CC(C)=O) 703 nm; (in CCO) 705 nm; (in CN(C)C=O) 705 nm; (in CO) 702 nm. Also, the emission maximum is 709 nm (in CS(C)=O) and 714 nm (in ClCCl).
For the compound `COc1ccc2oc(-c3cc4cc(OC)ccc4oc3=O)cc2c1`, the emission maximum reads like this: (in CC#N) 480 nm; (in CCOC(C)=O) 443 nm; (in CS(C)=O) 484 nm; (in Cc1ccccc1) 446 nm.
With `CCCCCCCCCCOc1ccc2cc(C3=C4C(=O)N(CC(OCC)OCC)C(c5cc6ccc(OCCCCCCCCCC)cc6o5)=C4C(=O)N3CC(OCC)OCC)oc2c1`, for the setting “in ClC(Cl)Cl”, the emission maximum came to 613 nm.
As to `CCC1=C(C)C2=C(c3c4ccccc4c(C)c4ccccc34)c3c(C)c(CC)c(C)n3[B-](F)(F)[N+]2=C1C`, the emission maximum is, setting by setting: (in CC#N) 538 nm; (in CCCCCC) 540 nm; (in CCO) 538 nm; (in CN(C)C=O) 540 nm; (in Cc1ccccc1) 544 nm; (in ClCCl) 543 nm.
On to `CC[n+]1c(C=C2C(=O)C(C=C3Sc4cc(Cl)ccc4N3C)=C2[O-])[se]c2ccccc21`, for which the emission maximum came to 674 nm (in CO) and 699 nm (in ClC(Cl)Cl).
The compound `N#Cc1cc(C#N)c(-n2c3ccccc3c3cc(-c4cccc5c4c4ccccc4n5-c4cc(-n5c6ccccc6c6ccccc65)c(C#N)cc4C#N)ccc32)cc1-n1c2ccccc2c2ccccc21` registered an emission maximum (in O=P(c1ccccc1)(c1ccccc1)c1ccccc1Oc1ccccc1P(=O)(c1ccccc1)c1ccccc1) of 448 nm.
Take `c1ccc2c(c1)Sc1ccccc1N2c1ccc2c(ccc3nc4ccc5cc(N6c7ccccc7Sc7ccccc76)ccc5c4nc32)c1`: the emission maximum (in C1CCCCC1) is reported as 543 nm and the emission maximum (in Cc1ccccc1) is 657 nm.
Consider `CCN(CC)c1ccc(-c2nc3c(c4c2-c2ccccc2CC4)-c2ccccc2CC3)cc1`, for which the emission maximum is reported as 452 nm (in C1CCOC1); 463 nm (in CC#N); 425 nm (in CCCCCC); 449 nm (in CCOC(C)=O); 461 nm (in CO); 470 nm (in CS(C)=O). In addition, the emission maximum is 437 nm (in Cc1ccccc1) and 449 nm (in ClCCl).
Consider `CCCCN1C(=O)C2=C(c3ccc(-c4ccc5c(c4)C(C)(C)c4ccccc4-5)cc3)[N-]C(=O)C2=C1c1ccc(-c2ccc3c(c2)C(C)(C)c2ccccc2-3)cc1`, for which the emission maximum (in ClCCl) is reported as 635 nm.
With `CC1=CC(/C=C/c2ccc([N+](C)(C)C)cc2)=[N+]2C1=C(c1ccc(C#CCO[C@@H]3O[C@H](CO)[C@@H](O)C(O)[C@H]3O)cc1)c1c(C)cc(/C=C/c3ccc([N+](C)(C)C)cc3)n1[B-]2(F)F` (stereo partly drawn), for the setting “in CC#N”, the emission maximum was found to be 629 nm.
Regarding `CC1(C)c2ccccc2N(c2ccc(-c3ccc(C#N)nc3)cc2)c2ccccc21`, the emission maximum by setting is: (in Cc1ccccc1) 488 nm; (in N#Cc1ccc2c(c1)c1ccccc1n2-c1cccc(-n2c3ccccc3c3ccccc32)c1) 490 nm.
Regarding `CCNc1cc2oc3c/c(=[NH+]\CC)c(C)cc-3c(-c3ccccc3C(=O)OCC)c2cc1C`, the emission maximum by setting is: (in CC#N) 552 nm; (in CCO) 552 nm; (in CN(C)C=O) 532 nm; (in CO) 555 nm; (in O) 554 nm.
Take `CCOC(=O)CN1C(=O)C2=C(c3ccc(C#N)cc3)N(CC(=O)OCC)C(=O)C2=C1c1ccccc1`: the emission maximum runs as follows: (in CC#N) 538 nm; (in CS(C)=O) 547 nm; (in Cc1ccccc1) 544 nm.
Compound `CCCCc1cc(-c2cccc(COC)c2)oc1-c1cccc(-c2cc(CCCC)c(-c3cccc(-c4oc(-c5cccc(-c6oc(-c7cccc(COC)c7)cc6CCCC)c5)cc4CCCC)c3)o2)c1` displayed an emission maximum (in ClC(Cl)Cl) of 373 nm.
Consider `F[B-]1(F)n2c(Cl)ccc2C(c2c(Cl)cccc2Cl)=C2C=CC(NCc3ccccc3)=[N+]21`, for which the emission maximum was determined as 532 nm (in CC#N); 538 nm (in CCCCCC); 532 nm (in CCOC(C)=O); 531 nm (in CO); 537 nm (in ClCCl).
With `COC(=O)C(N)Cc1ccc(O[Si]2(Oc3ccc(CC(N)C(=O)OC)cc3)n3c4c5ccccc5c3/N=C3N=C(/N=c5/c6ccccc6/c(n52)=N/C2=NC(=N\4)/c4ccccc42)c2ccccc2\3)cc1` (stereo not drawn), the emission maximum (in CN(C)C=O) amounted to 687 nm.
With `CC(C)c1cccc(C(C)C)c1N1C(=O)c2cccc3c(Oc4ccc(C(C)(C)c5ccccc5)cc4)ccc(c23)C1=O`, for the setting “in ClCCl”, the emission maximum was determined as 435 nm.
Take `CN(C)c1ccc(-c2nc(C#N)c(C#N)n2C)cc1`: the emission maximum by setting is: (in C1CCCCC1) 375 nm; (in CC#N) 519 nm; (in CO) 427 nm; (in ClC(Cl)Cl) 437 nm.
As for `CC1(C)C2=C(c3ccccc31)S(=O)(=O)c1ccccc12`, the emission maximum (in ClCCl) was 444 nm.
Regarding `CCCC1(CCC)c2ccccc2-c2ccccc21`, for the setting “in C1CCCCC1”, the emission maximum stood at 309 nm.
Take `Cc1cc(C)c(-c2nnc(-c3ccc(-n4c5ccccc5c5ccccc54)cc3)o2)c(C)c1`: the emission maximum (in CCO) turned out to be 435 nm and the emission maximum (in Cc1ccccc1) turned out to be 379 nm.
`Clc1ccc(-c2c3nc(c(-c4ccc(Cl)cc4)c4ccc([nH]4)c(-c4ccc(Cl)cc4)c4nc(c(-c5ccc(Cl)cc5)c5ccc2[nH]5)C=C4N2CCOCC2)C=C3)cc1`: the emission maximum (in CS(C)=O) worked out at 662 nm.
`COc1ccc(-n2c(-c3ccc(-c4cncc5ccccc45)cc3)nc(-c3ccccc3)c2-c2ccccc2)cc1`: the emission maximum (in C1CCOC1) was 432 nm.
Regarding `N#CC(C#N)=Cc1ccc2c(c1)c1ccccc1n2-c1cccc2ccccc12`, the emission maximum (in ClCCl) was found to be 473 nm.
Take `CCOC(=O)C1=CN(c2ccccc2)C=C(C(=O)OCC)C1c1ccccc1`: the emission maximum is on record as 412 nm (in C1CCOC1) and 426 nm (in CO).
Turning to `Cc1cccc2c3ccccc3n(-c3ccc(-c4c(-c5ccccc5)c(C#N)c(C#N)c(-c5ccccc5)c4-c4ccc(-n5c6ccccc6c6cccc(C)c65)cc4)cc3)c12`, the emission maximum (in Cc1ccccc1) is recorded as 440 nm and the emission maximum (in O=P(c1ccccc1)(c1ccccc1)c1ccc2oc3ccc(P(=O)(c4ccccc4)c4ccccc4)cc3c2c1) is 450 nm.
Regarding `CCCCC1(CCCC)c2ccccc2-c2ccc(-c3c4c(nc5ccccc35)-c3cc5c(cc3CC4)-c3nc4ccccc4c(-c4ccc6c(c4)C(CCCC)(CCCC)c4ccccc4-6)c3CC5)cc21`, the emission maximum (in ClC(Cl)Cl) is given as 385 nm.
Take `O=c1oc2ccccc2cc1-c1ccc([N+](=O)[O-])cc1`: the emission maximum is, setting by setting: (in C1CCOC1) 421 nm; (in CC#N) 409 nm; (in CS(C)=O) 425 nm; (in ClC(Cl)Cl) 400 nm.
In turn, `c1ccc2c[n+]3ccccc3cc2c1` registered an emission maximum (in O) of 404 nm.
Turning to `COc1ccc(N(c2ccc(OC)cc2)c2ccc3c4cccc5c(N(c6ccc(OC)cc6)c6ccc(OC)cc6)ccc(c6cccc2c63)c54)cc1`, the emission maximum reads like this: (in C1CCCCC1) 551 nm; (in C1CCOC1) 583 nm; (in CC#N) 598 nm; (in Cc1ccccc1) 574 nm; (in ClCCl) 591 nm.
Turning to `COc1cc(-c2nc(-c3ccccc3)c3ccccn23)ccc1O`, the emission maximum (in CC#N) amounted to 489 nm.
Take `c1cc2cc(c1)c1ccc3ccc4ccc(cc4c3c1)c1ccc3ccc4ccc(cc4c3c1)c1cccc2c1`: the emission maximum (in Cc1ccccc1) turned out to be 414 nm.
As to `CN(C)c1ccc2cc3c(cc2c1)OCCN=C3`, the emission maximum reads like this: (in C1CCOC1) 425 nm; (in CC#N) 562 nm; (in CC(C)O) 447 nm; (in CCOC(C)=O) 426 nm; (in CN(C)C=O) 442 nm; (in CS(C)=O) 447 nm. For the same compound, the emission maximum reads like this: (in Cc1ccccc1) 415 nm; (in ClCCl) 532 nm; (in O) 559 nm.
Consider `FC(F)(F)c1ccc(-c2nc(-c3ccc(C(F)(F)F)cc3)n3ccccc23)cc1`, for which the emission maximum (in ClC(Cl)Cl) worked out at 480 nm.
For `[O-][n+]1c(/C=C/C=C/c2ccccc2)nc(N2CCOCC2)c2c1CCCC2`, under “in ClCCl”, the emission maximum amounted to 546 nm.
Take `CCCn1c2cccc3c2[c+]2c4c1cccc4n(CCC)c1cccc(c12)n3CCC`: the emission maximum (in CC#N) amounted to 557 nm.
Regarding `CC1(C)c2ccccc2N(c2ccc(-c3nc4c(C#N)ccc(C#N)c4nc3-c3ccc(N4c5ccccc5C(C)(C)c5ccccc54)cc3)cc2)c2ccccc21`, the emission maximum (in Cc1ccccc1) is 663 nm.
For `CCN(CC)c1ccc([N+]2=Cc3ccc4c5c(ccc4c3O[B-]2(c2ccccc2)c2ccccc2)C=[N+](c2ccc(N(CC)CC)cc2)[B-](c2ccccc2)(c2ccccc2)O5)cc1`, the emission maximum is 627 nm (in Cc1ccccc1) and 644 nm (in ClCCl).
With `CCCCN1C(=O)c2cc(Oc3ccc(C(C)(C)C)cc3)c3c4c(Oc5ccc(C(C)(C)C)cc5)cc5c6c(cc(Oc7ccc(C(C)(C)C)cc7)c(c7c(Oc8ccc(C(C)(C)C)cc8)cc(c2c37)C1=O)c64)C(=O)N(CCCC)C5=O`, the emission maximum reads like this: (in ClC(Cl)Cl) 615 nm; (in ClCCl) 607 nm.
For the compound `COc1ccc2cc(C#Cc3ccc([N+](=O)[O-])cc3)ccc2c1`, the emission maximum stood at 533 nm (in C1CCOC1), 592 nm (in ClC(Cl)Cl) and 635 nm (in ClCCl).
Regarding `COc1cccc(OC)c1C1=C2C(C)=CC(C)=[N+]2[B-](F)(F)n2c(C)cc(C)c21`, the emission maximum is, setting by setting: (in C1CCOC1) 520 nm; (in CC#N) 513 nm; (in CC(=O)C(C)(C)C) 520 nm; (in CC(C)=O) 516 nm; (in CCCCCC) 519 nm; (in CCOC(C)=O) 520 nm. Also, the emission maximum (in CO) was 518 nm.
`F[B-]1(F)n2c(c(-c3ccccc3)c(-c3ccccc3)c2-c2ccccc2)C(c2ccccc2)=C2C(c3ccccc3)=C(c3ccccc3)C(c3ccccc3)=[N+]21` had an emission maximum (in C1CCOC1) of 613 nm.

For the origin of these results see the Deep4Chem optical property database.
